Legend:
Assay type in all cases: cell-based
[1] = system: MM cell lines (MM1.S, 8226, KMS-11, U266); assay: Measurement of cytoplasmic calcium (indo-1 fluorescence ratio 400/500 nm); conditions: MM cell lines
Procedure: (§1) Measurement of cytoplasmic calcium: Cytoplasmic Ca^2+ concentration was estimated by using the cell permeant fluorochrome indo-1-AM (Invitrogen, Carlsbad, Calif.). When excited at 355 nm, the maximum emission of indo-1 shifts from 500 nm to 400 nm following its binding to free Ca^2+. Thus, the ratio of reading at 400 nm and 500 nm correlates with concentration of cytoplasmic Ca^2+. Experiments were performed in cells loaded with indo-1 by incubating them with 2.5 μM of this fluorochrome at 37° C. for 45 min. Cells were then centrifuged at 400 g for 5 min and resuspended in their growth medium followed by distribution of 100 μl of aliquots into 96 well optical bottom plates (Nalge Nunc, Int., Rochester, N.Y.) and fluorescence was measured by Spectra Max Gemini Plus (Molecular Devices, Sunnyvale, Calif.). The average of triplicates from untreated samples was used as control reading and increase in cytoplasmic Ca^2+ was calculated as percent increase from control samples.

[2] = system: non-myeloma cell lines (NALM6, MDA-MB-435, 143B, 1420); assay: as above; conditions: non-myeloma cell lines (oligomycin: all cell lines)
Procedure: as §1

[3] = system: CHOP/GADD153 and cleaved caspase 3 in 4 MM cell lines; assay: Western blot of CHOP/GADD153 and cleaved caspase 3 (UPR-mediated apoptosis); conditions: all 4 MM cell lines
Procedure: Western Blot analysis: Cells are plated at 10^4 cell/cm^−2 for attached cells and 3×10^5/ml for suspension cells and grown under drug treatment for the indicated times. At the end of the treatment period, cells are collected and lysed with 1% SDS in 80 mM Tris-HCL (ph 7.4) buffer supplemented with a proteinase inhibitor cocktail. DNA is fragmented by sonication and protein concentrations are measured by microBCA protein assay kit (Pierce, Rockford, Ill.). Samples are mixed with 3× Laemmli sample buffer (Cell Signaling, Danvers, Mass.) and 40 μg of protein was run on a 12% SDS-polyacrylamide gel. Gels are transferred to nitrocellulose membranes (Amersham, Piscataway, N.J.) and probed with monoclonal rabbit anti-GRP94, anti GRP-78, anti-PDI, anti-CHOP/GADD153, anti-cleaved caspase 3 (Cell Signaling, Danvers, Mass.) and monoclonal mouse anti-β-actin (Sigma, St. Louis, Mo.). Following probing, membranes are washed and incubated with HRP-conjugated secondary antibody (Invitrogen, Carlsbad, Calif.). Following addition of 1:3 diluted femto-chemiluminescent substrate (Pierce, Rockford, Ill.) membranes were exposed to blue autoradiographic film (ISC bioexpress, Kaysville, Utah). Where indicated, membranes were stripped with Stripping Buffer (Pierce, Rockford, Ill.) and reprobed with anti-β-actin (Sigma-Aldrich, St. Louis, Mo.) primary antibody. When needed, the blots were quantified using Bio-Rad gel reader which employs Quality I software (Bio-Rad, Hercules, Calif.).

N#CC(C#N)=NNc1cccc(Cl)c1 [CCCP]
cytoplasmic Ca2+ after mitochondrial inhibitor [1]: immediate increase in cytoplasmic Ca^2+
effect on mitochondrial Ca2+ uptake ([1]; estimated from cytoplasmic Ca2+): equally inhibit mitochondrial Ca^2+ uptake
increase in cytoplasmic Ca2+ after mitochondrial inhibitor [2]: not seen in non-myeloma cell lines except for NALM6
treatment time at which CHOP/GADD153 expression is noted [3]: 3 h
